Key:
[1] = system: LDLR mRNA expression in HepG2 cells; assay: LDLR mRNA expression in HepG2 cells, quantitative real-time RT-PCR (Example 7); assay type: cell-based, human; details: dose less than or equal to 10 μM, 24 hours
Protocol: In yet another experiment, HepG2 cells were treated with various compounds for 24 hours at the indicated doses. Total RNA was isolated and 2 μg was used to generate cDNA in a reaction containing random primers and M-MLV at 37° C. for 1 hour in a volume of 25 μL. Real-time PCR was performed on the cDNA using MCEP REALPLEX 2 SYSTEM (Eppendorf) and Universal MasterMix (Applied Biosystems). Human LDLR and GAPDH Pre-Developed TaqMan Assay Reagents (Applied Biosystems) were used to assess the levels of mRNA expressions in HepG2. The levels of LDLR mRNA were normalized to that of GAPDH. Each RNA samples was assayed in triplicate. The abundance of LDLR mRNA in untreated cells was defined as 1, and the amounts of LDLR mRNA from compound-treated cells were plotted relative to that value in FIG. 2B. The data shown are mean±s.d.
Activities of some compounds of Formulas I, II and EE on LDLR mRNA expression were determined. HepG2 cells were treated with new compounds individually at a dose less than or equal to 10 μM for 24 hours. […] In these experiments, berberine chloride was included for comparison.

[2] = system: LDLR ligand uptake activity in HepG2 cells; assay: DiI-LDL uptake in HepG2 cells (Example 6); assay type: cell-based, human; details: 20 hours, A, compound dose ≦10 μM; further: key: +: slightly increased fluorescent intensity over control; ++: modestly increased fluorescent intensity over control; +++: strongly increased fluorescent intensity over control
Protocol: HepG2 cells (2×10^5 cells/well) in 24-well culture plates were treated with various compounds at indicated concentrations for 20 hours. The fluorescent 1.1′-dioctadecyl-3,3,3′,3′-tetramethylindocarbocyanin perchlorate (DiI-LDL) (Biomedical Technologies, Stoughton, Mass.) at a concentration of 2 μg/mL was added to cells at the end of treatment. After 4 hours, the medium was removed, cells were washed with cold PBS, and were examined immediately under a fluorescent microscope (Nikon) at 200× amplification. The fluorescent intensity in compound-treated cells was compared to that in untreated control cells. […] In these experiments berberine chloride was used for comparison.

| Compound | Activity on LDLR mRNA expression (Fold of control) [1] | Activity on DiI-LDL uptake [2] |
| --- | --- | --- |
| COc1ccc2c(c1OC)CN1CCc3cc4c(cc3C1C2Cc1ccccc1)OCO4 (centres unmarked) [Compound 1, 9,10-dimethoxy-13-benzyl-5,6,7,8,13,13a-hexahydro-2H-1,3-dioxolano[4,5-g]isoquinolino[3,2-a]isoquinoline] | 1.56 ± 0.86 Fold of control | + |
| COc1ccc2c(c1OCc1ccccc1[N+](=O)[O-])CN1CCc3cc4c(cc3C1C2)OCO4 (centres unmarked) [Compound 26, 10-methoxy-9-[(2-nitrophenyl)methoxy]-5,6,7,8,13,13a-hexahydro-2H-1,3-dioxolano[4,5-g]isoquinolino[3,2-a]isoquinoline] | 1.29 ± 0.10 Fold of control | ++ |
| COc1ccc2c(c1OC(=O)N(C)C)CN1CCc3cc4c(cc3C1C2)OCO4 (centres unmarked) [Compound 43, (10-methoxy(5,6,7,8,13,13a-hexahydro-2H-1,3-dioxolano[4,5-g]isoquinolino[3,2-a]isoquinolin-9-yloxy))-N,N-dimethylcarboxamide] | 1.95 ± 0.18 Fold of control | ++ |
| COc1ccc2c(c1O)CN1CCc3cc4c(cc3C1C2)OCO4 (centres unmarked) [Compound 34, 10-methoxy-5,6,7,8,13,13a-hexahydro-2H-1,3-dioxolano[4,5-g]isoquinolino[3,2-a]isoquinoline-9-ol] | 1.76 ± 0.17 Fold of control | ++ |
| COc1ccc2c(c1OC(=O)Nc1cccc(C)c1)CN1CCc3cc4c(cc3C1C2)OCO4 (centres unmarked) [Compound 46, (10-methoxy(5,6,7,8,13,13a-hexahydro-2H-1,3-dioxolano[4,5-g]isoquinolino[3,2-a]isoquinolin-9-yloxy))-N-(3-methylphenyl)carboxamide] | 1.80 ± 0.16 Fold of control | ++ |
| COc1cc(NC(=O)Oc2c(OC)ccc3c2CN2CCc4cc5c(cc4C2C3)OCO5)cc(OC)c1 (centres unmarked) [Compound 45, N-(3,5-dimethoxyphenyl)(10-methoxy(5,6,7,8,13,13a-hexahydro-2H-1,3-dioxolano[4,5-g]isoquinolino[3,2-a]isoquinolin-9-yloxy))carboxamide] | 2.09 ± 0.11 Fold of control | ++ |
| COc1ccc2c(c1OC(=O)NC(C)C)CN1CCc3cc4c(cc3C1C2)OCO4 (centres unmarked) [Compound 41, (10-methoxy(5,6,7,8,13,13a-hexahydro-2H-1,3-dioxolano[4,5-g]isoquinolino[3,2-a]isoquinolin-9-yloxy))-N-(methylethyl)carboxamide] | 1.60 ± 0.03 Fold of control | ++ |
| COc1ccc2c(c1OC)C(CC(C)=O)N1CCc3cc4c(cc3C1=C2)OCO4 (centres unmarked) [Compound 30, 1-(9,10-dimethoxy-5,6,7,8-tetrahydro-2H-1,3-dioxolano[4,5-g]isoquinolino[3,2-a]isoquinolin-8-yl)acetone] | 1.47 ± 0.13 Fold of control | + |
| COc1ccc2c(c1OS(=O)(=O)c1ccc(C(C)(C)C)cc1)CN1CCc3cc4c(cc3C1C2)OCO4 (centres unmarked) [Compound 38, 10-methoxy-5,6,7,8,13,13a-hexahydro-2H-1,3-dioxolano[4,5-g]isoquinolino[3,2-a]isoquinolin-9-yl 4-(tert-butyl)benzenesulfonate] | 1.82 ± 0.10 Fold of control | ++ |
| COc1ccc2c(c1OS(=O)(=O)c1cccs1)CN1CCc3cc4c(cc3C1C2)OCO4 (centres unmarked) [Compound 56, 10-methoxy-5,6,7,8,13,13a-hexahydro-2H-1,3-dioxolano[4,5-g]isoquinolino[3,2-a]isoquinolin-9-yl thiophene-2-sulfonate] | 3.18 ± 0.63 Fold of control | +++ |

Reference: US20110009628A1, “Compounds and Compositions for Modulating Lipid Levels and Methods of Preparing Same” (priority 2009, published 2011)
